Patent US8378100B2, “Phosphonate derivatives as autotaxin inhibitors” (University of Virginia Patent Foundation, priority 2008, dated 2013)

Target: recombinant human ATX (Homo sapiens, UniProt Q13822)
Test: Choline detection assay for ATX
Assay type: biochemical
Conditions: table of g1-g15 (β-keto phosphonates), activity without test compound = 100%; for ATX activity (%) 10 μM: 10 μM test compound; for ATX activity (%) 100 μM: 100 μM test compound; for ATX activity (%) 1 μM: 1 μM test compound
Experimental: The phosphonate derivatives were tested in choline detection assay for ATX inhibition. The ATX activity assay was conducted in 0.1 ml, buffer: (in mM: Tris-HCl 100, pH9, NaCl 150, MgCl2 5, CoSO4 0.03, 0.05% Triton X-100), 1 mM 18:1 LPC, using recombinant human ATX with or without test compounds; incubation was for 16 hours at 37° C. The released choline was detected as follows: Samples were mixed with 0.15 ml of 50 mM TrisHCl containing 2.7 mM TOOS(N-ethyl-N-2-hydroxy-3-sulfopropyl)-m-toluidine, 2.7 mM 4-AAP (4-aminoantipyrine), 47.7 U/ml horseradish peroxidase, 18 U/ml choline oxidase, and 5 mM MgCl2. After 30 min incubation at 37° C., light absorbance (550 nm) was determined, and the amount of choline release was calculated from a standard curve.
The ATX activity was measured in the presence of the test compounds under different concentrations (100 μM, 10 μM and 1 μM). The ATX activity without TEST compounds was used as the standard (100% activity). Some β-hydroxy phosphonate derivatives inhibited ATX activity at only the highest concentration tested. […] These two compounds were synthesized from protected L-tyrosine and they are diastereomers. The less polar isomer, f17, (also known as VPC8a202) was able to inhibit 73% of ATX activity at 1 μM.

SMILES	ATX activity (%) 10 μM [%]	ATX activity (%) 100 μM [%]	ATX activity (%) 1 μM [%]
CCCCCCCCCCCCCCCC(=O)N[C@H](Cc1ccc(OCc2ccccc2)cc1)C(=O)CP(=O)(O)O [g3]	82	76	
CCCCCCCCCCCCCCCC(=O)N[C@@H](Cc1ccc(OCc2ccccc2)cc1)C(=O)CP(=O)(O)O [g4]	71	61	
CCCCCCCCCCCCCCCC(=O)N[C@@H](Cc1ccc(OCc2ncc(C)c(OC)c2C)cc1)C(=O)CP(=O)(O)O [g7]	74	26	71
CCCCCCCCCCCCCCCC(=O)N[C@H](Cc1ccc(OC)cc1)C(=O)CP(=O)(O)O [g8]	71	32	84
CCCCCCCCCCCCCCCC(=O)N[C@@H](Cc1ccc(OC)cc1)C(=O)CP(=O)(O)O [g9]	68	45	96
CCCCCCCCCCCCCCCC(=O)N[C@H](Cc1ccc(OCCC)cc1)C(=O)CP(=O)(O)O [g10]	97	75	104
CCCCCCCCCCCCCCCC(=O)N[C@@H](Cc1ccc(OCCC)cc1)C(=O)CP(=O)(O)O [g11]	97	72	
CCCCCCCCCCCCCCCC(=O)N[C@H](Cc1ccc(OCCCCC)cc1)C(=O)CP(=O)(O)O [g12]	84		93
CCCCCCCCCCCCCCCC(=O)N[C@@H](Cc1ccc(OCCCCC)cc1)C(=O)CP(=O)(O)O [g13]	83		95
